Measured values from US11292801B2, “Calpain modulators and therapeutic uses thereof” (Blade Therapeutics, Inc., priority 2016, dated 2022).

What was measured:
Human Calpain 9/NS1 = target: T1, Human Calpain 9/NS1 (Homo sapiens, UniProt O14815); test: Biochemical inhibition of calpain 9, continuous fluorescence (FRET substrate) assay; details: mean, read-out: Human Calpain 9/NS1 IC50 (nM)_MEAN
T1 sequence (O14815 1-690): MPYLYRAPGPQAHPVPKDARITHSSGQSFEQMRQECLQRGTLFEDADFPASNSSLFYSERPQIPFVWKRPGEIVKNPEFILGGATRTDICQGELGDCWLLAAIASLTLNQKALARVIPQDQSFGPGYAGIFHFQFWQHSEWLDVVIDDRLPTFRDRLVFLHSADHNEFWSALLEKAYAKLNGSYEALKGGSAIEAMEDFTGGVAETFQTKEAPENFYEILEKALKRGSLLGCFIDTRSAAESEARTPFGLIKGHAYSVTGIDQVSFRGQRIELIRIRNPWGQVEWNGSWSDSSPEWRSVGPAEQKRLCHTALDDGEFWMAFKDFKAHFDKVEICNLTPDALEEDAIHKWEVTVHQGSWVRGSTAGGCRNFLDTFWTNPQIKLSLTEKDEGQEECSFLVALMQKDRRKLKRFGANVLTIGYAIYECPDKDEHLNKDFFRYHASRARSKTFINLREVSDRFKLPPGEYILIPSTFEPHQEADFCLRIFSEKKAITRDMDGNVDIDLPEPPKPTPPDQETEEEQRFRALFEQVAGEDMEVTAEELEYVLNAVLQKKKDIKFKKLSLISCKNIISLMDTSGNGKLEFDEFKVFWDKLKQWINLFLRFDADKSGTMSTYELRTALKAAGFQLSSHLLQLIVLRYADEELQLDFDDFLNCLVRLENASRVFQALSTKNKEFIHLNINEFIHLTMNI
T1 sequence (P04632 1-268 partner): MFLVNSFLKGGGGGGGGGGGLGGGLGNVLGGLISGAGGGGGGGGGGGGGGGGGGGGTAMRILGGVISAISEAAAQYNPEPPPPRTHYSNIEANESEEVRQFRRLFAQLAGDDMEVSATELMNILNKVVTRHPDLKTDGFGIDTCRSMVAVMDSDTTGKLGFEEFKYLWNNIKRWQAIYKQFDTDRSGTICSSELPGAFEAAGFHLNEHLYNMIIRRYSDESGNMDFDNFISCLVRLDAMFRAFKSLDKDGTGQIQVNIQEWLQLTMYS
In short: (§1)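 IC50 values come from 4-parameter fits of progress-curve rates (1-5 min slopes) against log inhibitor concentration. Calpain and inhibitor premixed at ambient 25C in Tris pH ~7.5/NaCl/DTT buffer, then CaCl2 and FRET substrate added to activate; 5-FAM fluorescence (ex 490/em 520) followed 10 min.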

Human Calpain 1/NS1 = target: T2, Human Calpain 1/NS1 (Homo sapiens, UniProt P07384); test: Biochemical inhibition of calpain 1, continuous fluorescence (FRET substrate) assay; details: mean, read-out: Human Calpain 1/NS1 IC50 (nM)_MEAN
T2 sequence (P07384 1-714): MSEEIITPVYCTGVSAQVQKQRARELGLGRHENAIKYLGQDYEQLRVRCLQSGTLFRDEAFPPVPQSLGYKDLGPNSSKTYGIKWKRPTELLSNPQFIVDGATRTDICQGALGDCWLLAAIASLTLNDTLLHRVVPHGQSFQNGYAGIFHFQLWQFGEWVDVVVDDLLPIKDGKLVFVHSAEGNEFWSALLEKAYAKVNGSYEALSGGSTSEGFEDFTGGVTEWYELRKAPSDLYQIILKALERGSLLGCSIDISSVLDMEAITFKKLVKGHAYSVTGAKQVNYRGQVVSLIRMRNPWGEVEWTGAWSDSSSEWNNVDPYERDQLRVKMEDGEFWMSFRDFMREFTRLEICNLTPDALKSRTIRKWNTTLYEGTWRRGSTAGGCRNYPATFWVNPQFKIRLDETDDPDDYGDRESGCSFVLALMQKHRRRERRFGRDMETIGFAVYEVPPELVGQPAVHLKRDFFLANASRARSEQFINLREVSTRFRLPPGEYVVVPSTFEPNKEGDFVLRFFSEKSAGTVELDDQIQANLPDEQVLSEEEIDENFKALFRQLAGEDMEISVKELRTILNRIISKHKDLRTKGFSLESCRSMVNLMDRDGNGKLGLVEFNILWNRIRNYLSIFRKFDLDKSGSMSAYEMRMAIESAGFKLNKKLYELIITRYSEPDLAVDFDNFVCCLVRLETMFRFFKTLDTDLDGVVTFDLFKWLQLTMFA
T2 sequence (P04632 1-268 partner): T1 sequence (P04632 1-268 partner)
In short: as §1

Human Calpain 2/NS1 = target: T3, Human Calpain 2/NS1 (Homo sapiens, UniProt P17655); test: Biochemical inhibition of calpain 2, continuous fluorescence (FRET substrate) assay; details: mean, read-out: Human Calpain 2/NS1 IC50 (nM)_MEAN
T3 sequence (P17655 1-700): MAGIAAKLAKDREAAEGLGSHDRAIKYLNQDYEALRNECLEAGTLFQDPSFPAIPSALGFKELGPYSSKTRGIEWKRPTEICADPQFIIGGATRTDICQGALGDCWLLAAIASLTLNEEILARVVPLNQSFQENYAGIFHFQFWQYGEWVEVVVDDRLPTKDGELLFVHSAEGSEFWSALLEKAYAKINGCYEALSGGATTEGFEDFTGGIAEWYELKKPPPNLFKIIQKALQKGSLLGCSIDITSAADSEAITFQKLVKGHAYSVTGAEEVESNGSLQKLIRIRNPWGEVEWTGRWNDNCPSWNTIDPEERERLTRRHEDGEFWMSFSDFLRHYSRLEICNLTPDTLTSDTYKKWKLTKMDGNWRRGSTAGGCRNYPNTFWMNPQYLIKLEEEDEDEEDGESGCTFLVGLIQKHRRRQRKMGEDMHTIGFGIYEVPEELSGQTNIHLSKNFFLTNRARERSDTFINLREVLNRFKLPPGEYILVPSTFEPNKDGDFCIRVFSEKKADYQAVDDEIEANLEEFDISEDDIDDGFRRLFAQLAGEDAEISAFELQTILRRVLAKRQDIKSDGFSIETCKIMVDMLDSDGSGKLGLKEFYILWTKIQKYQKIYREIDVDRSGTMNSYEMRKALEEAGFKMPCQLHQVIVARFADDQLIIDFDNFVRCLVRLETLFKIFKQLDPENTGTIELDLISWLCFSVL
T3 sequence (P04632 1-268 partner): T1 sequence (P04632 1-268 partner)
In short: as §1

| IC50 (Human Calpain 9/NS1) | IC50 (Human Calpain 1/NS1) | IC50 (Human Calpain 2/NS1) | SMILES |
| --- | --- | --- | --- |
| 3000 to 10000 nM | > 10000 nM | > 10000 nM | O=C(NCCCN1CCOCC1)C(=O)C1CCCCOCCOCc2ccccc2C(=O)N1 (stereo not drawn) [Compound 92, N-(3-morpholinopropyl)-2-oxo-2-(12-oxo-1,3,4,6,7,8,9,10,11,12-decahydrobenzo[f][1,4]dioxa[9]azacyclotetradecin-10-yl)acetamide] |
| > 10000 nM | > 10000 nM | > 10000 nM | CN(C)CCCNC(=O)C(=O)C1CCCCOCCOCc2ccccc2C(=O)N1 (stereo not drawn) [Compound 93, N-(3-(dimethylamino)propyl)-2-oxo-2-(12-oxo-1,3,4,6,7,8,9,10,11,12-decahydrobenzo[f][1,4]dioxa[9]azacyclotetradecin-10-yl)acetamide] |
| < 3000 nM | > 10000 nM | > 10000 nM | O=C(NCc1ccccn1)C(=O)C1CCCCOCCOCc2ccccc2C(=O)N1 (stereo not drawn) [Compound 94, 2-Oxo-2-(12-oxo-1,3,4,6,7,8,9,10,11,12-decahydrobenzo[f][1,4]dioxa[9]aza-cyclotetradecin-10-yl)-N-(pyridin-2-ylmethyl)acetamide] |
| < 3000 nM | > 10000 nM | > 10000 nM | O=C(NCc1ccccc1Cl)C(=O)C1CCCCOCCOCc2ccccc2C(=O)N1 (stereo not drawn) [Compound 95, N-(2-chlorobenzyl)-2-oxo-2-(12-oxo-1,3,4,6,7,8,9,10,11,12-decahydrobenzo[f][1,4]dioxa[9]azacyclotetradecin-10-yl)acetamide] |
| 3000 to 10000 nM | > 10000 nM | > 10000 nM | O=C(NCc1ccc(Cl)cc1Cl)C(=O)C1CCCCOCCOCc2ccccc2C(=O)N1 (stereo not drawn) [Compound 96, N-(2,4-dichlorobenzyl)-2-oxo-2-(12-oxo-1,3,4,6,7,8,9,10,11,12-decahydrobenzo[f][1,4]dioxa[9]azacyclotetradecin-10-yl)acetamide] |
| < 3000 nM | > 10000 nM | > 10000 nM | O=C(NCc1ccccc1)C(=O)C1CCCCOCCOCc2ccccc2C(=O)N1 (stereo not drawn) [Compound 97, N-benzyl-2-oxo-2-(12-oxo-1,3,4,6,7,8,9,10,11,12-decahydrobenzo[f][1,4]dioxa[9]azacyclotetradecin-10-yl)acetamide] |
| < 3000 nM | > 10000 nM | < 3000 nM | O=C(NCc1ccc(F)cc1)C(=O)C1CCCCOCCOCc2ccccc2C(=O)N1 (stereo not drawn) [Compound 98, N-(4-fluorobenzyl)-2-oxo-2-(12-oxo-1,3,4,6,7,8,9,10,11,12-decahydrobenzo[f][1,4]dioxa[9]azacyclotetradecin-10-yl)acetamide] |
| 3000 to 10000 nM | > 10000 nM | 3000 to 10000 nM | COc1ccc(CNC(=O)C(=O)C2CCCCOCCOCc3ccccc3C(=O)N2)c(OC)c1 (stereo not drawn) [Compound 99, N-(2,4-dimethoxybenzyl)-2-oxo-2-(12-oxo-1,3,4,6,7,8,9,10,11,12-decahydrobenzo[f][1,4]dioxa[9]azacyclotetradecin-10-yl)acetamide] |
| < 3000 nM | > 10000 nM | 3000 to 10000 nM | COc1ccc(CNC(=O)C(=O)C2CCCCOCCOCc3ccccc3C(=O)N2)cc1 (stereo not drawn) [Compound 100, N-(4-methoxybenzyl)-2-oxo-2-(12-oxo-1,3,4,6,7,8,9,10,11,12-decahydrobenzo[f][1,4]dioxa[9]azacyclotetradecin-10-yl)acetamide] |
| 3000 to 10000 nM | > 10000 nM | > 10000 nM | O=C(NCCc1cccnc1)C(=O)C1CCCCOCCOCc2ccccc2C(=O)N1 (stereo not drawn) [Compound 101, 2-Oxo-2-(12-oxo-1,3,4,6,7,8,9,10,11,12-decahydrobenzo[f][1,4]dioxa[9]aza-cyclotetradecin-10-yl)-N-(2-(pyridin-3-yl)ethyl)acetamide] |
| < 3000 nM | 3000 to 10000 nM | < 3000 nM | CCOc1ccccc1CNC(=O)C(=O)C1CCCCOCCOCc2ccccc2C(=O)N1 (stereo not drawn) [Compound 102, N-(2-ethoxybenzyl)-2-oxo-2-(12-oxo-1,3,4,6,7,8,9,10,11,12-decahydrobenzo[f][1,4]dioxa[9]azacyclotetradecin-10-yl)acetamide] |
| < 3000 nM | > 10000 nM | > 10000 nM | O=C(NCc1cccnc1)C(=O)C1CCCCOCCOCc2ccccc2C(=O)N1 (stereo not drawn) [Compound 103, 2-Oxo-2-(12-oxo-1,3,4,6,7,8,9,10,11,12-decahydrobenzo[f][1,4]dioxa[9]aza-cyclotetradecin-10-yl)-N-(pyridin-3-ylmethyl)acetamide] |
| < 3000 nM | > 10000 nM | 3000 to 10000 nM | O=C(NCCc1ccccc1)C(=O)C1CCCCOCCOCc2ccccc2C(=O)N1 (stereo not drawn) [Compound 104, 2-Oxo-2-(12-oxo-1,3,4,6,7,8,9,10,11,12-decahydrobenzo[f][1,4]dioxa[9]aza-cyclotetradecin-10-yl)-N-phenethylacetamide] |
| < 3000 nM | > 10000 nM | > 10000 nM | CN1CCN(CCCNC(=O)C(=O)C2CCCCOCCOCc3ccccc3C(=O)N2)CC1 (stereo not drawn) [Compound 105, N-(3-(4-methylpiperazin-1-yl)propyl)-2-oxo-2-(12-oxo-1,3,4,6,7,8,9,10,11,12-decahydrobenzo[f][1,4]dioxa[9]azacyclotetradecin-10-yl)acetamide] |
| < 3000 nM | > 10000 nM | 3000 to 10000 nM | O=C(NCc1cccc(F)c1)C(=O)C1CCCCOCCOCc2ccccc2C(=O)N1 (stereo not drawn) [Compound 106, N-(3-fluorobenzyl)-2-oxo-2-(12-oxo-1,3,4,6,7,8,9,10,11,12-decahydrobenzo[f][1,4]dioxa[9]azacyclotetradecin-10-yl)acetamide] |
| 3000 to 10000 nM | > 10000 nM | > 10000 nM | O=C(NCc1c(F)cccc1Cl)C(=O)C1CCCCOCCOCc2ccccc2C(=O)N1 (stereo not drawn) [Compound 107] |
| < 3000 nM | > 10000 nM | 3000 to 10000 nM | Cc1ccc(Cl)cc1CNC(=O)C(=O)C1CCCCOCCOCc2ccccc2C(=O)N1 (stereo not drawn) [Compound 108, N-(5-chloro-2-methylbenzyl)-2-oxo-2-(12-oxo-1,3,4,6,7,8,9,10,11,12-decahydrobenzo[f][1,4]dioxa[9]azacyclotetradecin-10-yl)acetamide] |
